Patent US8192962B2, “Processes for detecting toxic substances” (Daikin Industries, Ltd., priority 2001, dated 2012)

Test system: Energy system protein genes
Assay: DNA chip mRNA expression in yeast, energy system protein genes (Table 4)
Assay type: cell-based, Saccharomyces cerevisiae S288C
Description: Yeast (Saccharomyces cerevisiae S288C (α SUC2mal mel gap2 CUP1)) were incubated at 25° C. on YPD medium (yeast extract 1%, polypepton 2%, glucose 2%). One of toxic chemical substances was added to the cells at logarithmic growth phase, and the cells were further incubated for two hours. Cells were cultured without any chemical substance in the same condition, and were used as control. Concentrations of the chemical substances were defined to inhibit the growth of the yeast but not lead to death.
After completion of the incubation, the culture was centrifuged to collect the cells. To the cells, sodium acetate buffer (50 mM sodium acetate, 10 mM EDTA, 1% SDS) was added, and the mixture was shaken at 65° C. for five minutes, followed by returning to room temperature, and obtaining the supernatant, of which the procedures were repeated two times. To the supernatant, ½ amount of a solution of phenol/chloroform was added, and the mixture was centrifuged to give a supernatant, which was added with an equal amount of chloroform, and the mixture was centrifuged to give a supernatant. To the supernatant, an equal amount of isopropanol containing 0.3 M sodium acetate was added, and the mixture was allowed to stand at room temperature for 30 minutes, after which the mixture was centrifuged to give a sediment of the whole RNAs. Seventy % ethanol was added to the sediment, and the mixture was again centrifuged to give a sediment, which was then dried and dissolved in water. mRNA was isolated from the whole RNAs as followings. In view of the fact that a poly A chain is attached to the 3′ terminus of mRNA, a polynucleotide having a poly T structure which was immobilized on the surface of latex beads was used to trap the mRNA, and then the mRNA was washed and eluted with spine column (Oligotex-dT30<Super>mRNA Purification Kit, Takara). Reverse transcription of the mRNA was conducted with a reverse transcriptase (Super Script II Reverse Transcriptase; catalogue No. 18064-014, GibcoBRL) using fluorescence-labeled nucleotides to give cDNAs that were introduced with Cy3-dUTP or Cy5-dUTP during the reverse transcription.
The labeled cDNAs were dissolved in TE buffer (10mM Tris-HCl/1 mM EDTA, pH8.0), and the solution was dropped on the DNA chip containing the whole genes of yeast (DNA Chip Research Inc. Japan) so that the cDNAs were hybridized on the DNA chip at 65° C. for over 12 hours. The fluoresces intensity of the DNA chip was read with a scanner, and the ratio relative to the fluorescence intensity resulting from the absence of chemical substance was estimated as the following, which is shown in Tables 1 to 9: […]

Cl[C@H]1[C@H](Cl)[C@@H](Cl)[C@@H](Cl)[C@H](Cl)[C@H]1Cl [(7), γ-hexachlorocyclohexane]
The level of expressed mRNA in the presence of chemical substance/The level of expressed mRNA in the absence of chemical substance (yeast gene YAL060W): 3.3 | The level of expressed mRNA in the presence of chemical substance/The level of expressed mRNA in the absence of chemical substance (yeast gene YBL058W, cells incubated two hours with the chemical substance): 1.5 | The level of expressed mRNA in the presence of chemical substance/The level of expressed mRNA in the absence of chemical substance (yeast gene YBL099W, cells incubated two hours with the chemical substance): 0.9 | The level of expressed mRNA in the presence of chemical substance/The level of expressed mRNA in the absence of chemical substance (yeast gene YBR001C, cells incubated two hours with the chemical substance): 0.9 | The level of expressed mRNA in the presence of chemical substance/The level of expressed mRNA in the absence of chemical substance (yeast gene YBR185C, cells incubated two hours with the chemical substance): 1.2 | The level of expressed mRNA in the presence of chemical substance/The level of expressed mRNA in the absence of chemical substance (yeast gene YBR221C, cells incubated two hours with the chemical substance): 1.5 | The level of expressed mRNA in the presence of chemical substance/The level of expressed mRNA in the absence of chemical substance (yeast gene YCL040W): 2.9 | The level of expressed mRNA in the presence of chemical substance/The level of expressed mRNA in the absence of chemical substance (yeast gene YCR012W): 1.4 | The level of expressed mRNA in the presence of chemical substance/The level of expressed mRNA in the absence of chemical substance (yeast gene YCR046C, cells incubated two hours with the chemical substance): 1.2 | The level of expressed mRNA in the presence of chemical substance/The level of expressed mRNA in the absence of chemical substance (yeast gene YCR105W, cells incubated two hours with the chemical substance): 1.0 | The level of expressed mRNA in the presence of chemical substance/The level of expressed mRNA in the absence of chemical substance (yeast gene YDL021W): 5.9 | The level of expressed mRNA in the presence of chemical substance/The level of expressed mRNA in the absence of chemical substance (yeast gene YDL067C, cells incubated two hours with the chemical substance): 0.8 | The level of expressed mRNA in the presence of chemical substance/The level of expressed mRNA in the absence of chemical substance (yeast gene YDL078C, cells incubated two hours with the chemical substance): 1.7 | The level of expressed mRNA in the presence of chemical substance/The level of expressed mRNA in the absence of chemical substance (yeast gene YDL107W, cells incubated two hours with the chemical substance): 1.8 | The level of expressed mRNA in the presence of chemical substance/The level of expressed mRNA in the absence of chemical substance (yeast gene YDL174C): 3.6 | The level of expressed mRNA in the presence of chemical substance/The level of expressed mRNA in the absence of chemical substance (yeast gene YDL181W, cells incubated two hours with the chemical substance): 1.1 | The level of expressed mRNA in the presence of chemical substance/The level of expressed mRNA in the absence of chemical substance (yeast gene YDR001C): 1.5 | The level of expressed mRNA in the presence of chemical substance/The level of expressed mRNA in the absence of chemical substance (yeast gene YDR050C, cells incubated two hours with the chemical substance): 1.5 | The level of expressed mRNA in the presence of chemical substance/The level of expressed mRNA in the absence of chemical substance (yeast gene YDR079W, cells incubated two hours with the chemical substance): 1.3 | The level of expressed mRNA in the presence of chemical substance/The level of expressed mRNA in the absence of chemical substance (yeast gene YDR178W, cells incubated two hours with the chemical substance): 0.6 | The level of expressed mRNA in the presence of chemical substance/The level of expressed mRNA in the absence of chemical substance (yeast gene YDR231C): 1.7 | The level of expressed mRNA in the presence of chemical substance/The level of expressed mRNA in the absence of chemical substance (yeast gene YDR298C, cells incubated two hours with the chemical substance): 1.0 | The level of expressed mRNA in the presence of chemical substance/The level of expressed mRNA in the absence of chemical substance (yeast gene YDR377W, cells incubated two hours with the chemical substance): 1.1 | The level of expressed mRNA in the presence of chemical substance/The level of expressed mRNA in the absence of chemical substance (yeast gene YDR529C, cells incubated two hours with the chemical substance): 0.5 | The level of expressed mRNA in the presence of chemical substance/The level of expressed mRNA in the absence of chemical substance (yeast gene YEL024W, cells incubated two hours with the chemical substance): 0.7 | The level of expressed mRNA in the presence of chemical substance/The level of expressed mRNA in the absence of chemical substance (yeast gene YEL039C, cells incubated two hours with the chemical substance): 0.6 | The level of expressed mRNA in the presence of chemical substance/The level of expressed mRNA in the absence of chemical substance (yeast gene YER178W): 1.6 | The level of expressed mRNA in the presence of chemical substance/The level of expressed mRNA in the absence of chemical substance (yeast gene YFL057C): 1.8 | The level of expressed mRNA in the presence of chemical substance/The level of expressed mRNA in the absence of chemical substance (yeast gene YFR053C): 2.1 | The level of expressed mRNA in the presence of chemical substance/The level of expressed mRNA in the absence of chemical substance (yeast gene YGL018C, cells incubated two hours with the chemical substance): 1.1 | The level of expressed mRNA in the presence of chemical substance/The level of expressed mRNA in the absence of chemical substance (yeast gene YGL062W): 1.3 | The level of expressed mRNA in the presence of chemical substance/The level of expressed mRNA in the absence of chemical substance (yeast gene YGL187C, cells incubated two hours with the chemical substance): 0.6 | The level of expressed mRNA in the presence of chemical substance/The level of expressed mRNA in the absence of chemical substance (yeast gene YGL191W, cells incubated two hours with the chemical substance): 1.0 | The level of expressed mRNA in the presence of chemical substance/The level of expressed mRNA in the absence of chemical substance (yeast gene YGL205W, cells incubated two hours with the chemical substance): 0.8 | The level of expressed mRNA in the presence of chemical substance/The level of expressed mRNA in the absence of chemical substance (yeast gene YGL256W, cells incubated two hours with the chemical substance): 0.5 | The level of expressed mRNA in the presence of chemical substance/The level of expressed mRNA in the absence of chemical substance (yeast gene YGR008C): 3.7 | The level of expressed mRNA in the presence of chemical substance/The level of expressed mRNA in the absence of chemical substance (yeast gene YGR043C): 6.5 | The level of expressed mRNA in the presence of chemical substance/The level of expressed mRNA in the absence of chemical substance (yeast gene YGR062C, cells incubated two hours with the chemical substance, 25° C., YPD medium): 1.3 | The level of expressed mRNA in the presence of chemical substance/The level of expressed mRNA in the absence of chemical substance (yeast gene YGR087C, cells incubated two hours with the chemical substance): 1.0 | The level of expressed mRNA in the presence of chemical substance/The level of expressed mRNA in the absence of chemical substance (yeast gene YGR174C, cells incubated two hours with the chemical substance): 1.0 | The level of expressed mRNA in the presence of chemical substance/The level of expressed mRNA in the absence of chemical substance (yeast gene YGR192C): 1.7 | The level of expressed mRNA in the presence of chemical substance/The level of expressed mRNA in the absence of chemical substance (yeast gene YGR244C): 3.9 | The level of expressed mRNA in the presence of chemical substance/The level of expressed mRNA in the absence of chemical substance (yeast gene YGR254W): 1.5 | The level of expressed mRNA in the presence of chemical substance/The level of expressed mRNA in the absence of chemical substance (yeast gene YHR179W): 1.9 | The level of expressed mRNA in the presence of chemical substance/The level of expressed mRNA in the absence of chemical substance (yeast gene YIL160C): 1.1 | The level of expressed mRNA in the presence of chemical substance/The level of expressed mRNA in the absence of chemical substance (yeast gene YIR031C, cells incubated two hours with the chemical substance): 1.4 | The level of expressed mRNA in the presence of chemical substance/The level of expressed mRNA in the absence of chemical substance (yeast gene YJL052W): 2.1 | The level of expressed mRNA in the presence of chemical substance/The level of expressed mRNA in the absence of chemical substance (yeast gene YJL121C, cells incubated two hours with the chemical substance): 0.7 | The level of expressed mRNA in the presence of chemical substance/The level of expressed mRNA in the absence of chemical substance (yeast gene YJL166W, cells incubated two hours with the chemical substance): 0.8 | The level of expressed mRNA in the presence of chemical substance/The level of expressed mRNA in the absence of chemical substance (yeast gene YJL216C, cells incubated two hours with the chemical substance): 1.5
